Columns and labels:
[1] = system: DNA; settings: K. Mustafayeva et al., J. Nat. Prod. 2010, 73, 99-103; cited from earlier work
[2] = system: Normal human fibroblasts (NHF); experiment: Hyaluronan production (Hyaluronan Assay Kit); type: cell-based; settings: TGFbeta1 10 ng/ml, positive control
Protocol: Gentiana extract (Gentiana acaulis/Gentiana septemfida, 25/75 m/m) was used. Normal human fibroblasts (NHF) P2+1 were seeded at 5000 cell/well in 96 well cell culture plates (Nunclon) in MEM 10% FCS (Pan Biotech). After three days of growth, Gentiana extract solution was added in medium without FCS and incubated the cells for an additional three days. Secreted hyaluronan in the growth medium was measured using a Hyaluronan Assay Kit (K-1200, Echelon, Salt Lake City, Utah).

Compound | genotoxic effects reported [1] | stimulation of hyaluronan production compared to untreated cells [2] [%]
C=C[C@@H]1C2=CCOC(=O)C2=CO[C@H]1O[C@@H]1O[C@H](CO)[C@@H](O)[C@H](O)[C@H]1O [gentiopicroside] | DNA damaging, mutagenic, and clastogenic effects | –
TGFbeta1: TGFbeta1 (10 ng/ml), served as positive control for hyaluronan production | – | 45.6±1.1
